Earlier results on one compound are cited in patent US12409165B2, “Pharmaceutical composition comprising eltrombopag bis(monoethanolamine)” (SYNTHON B.V., priority 2019, dated 2025).

For data set [1] the following is noted: qualitative statement in the background, no method given.
For data set [2] the following is noted: qualitative statement in the background, no method given. This is another data set of the same source.

Regarding `CC1=NN(c2ccc(C)c(C)c2)C(=O)/C1=N\Nc1cccc(-c2cccc(C(=O)O)c2)c1O.NCCO.NCCO` [Eltrombopag bis(monoethanolamine), 3′-{(2Z)-2-[1-(3,4-dimethylphenyl)-3-methyl-5-oxo-1,5-dihydro-4H-pyrazol-4-ylidene]hydrazino}-2′-hydroxy-3-biphenyl-carboxylic acid bis(monoethanolamine)], the solubility result in data set [1] is given as “low”. Also, in data set [2], the permeability entry is “medium”.
